Test results as given in US9895338B1, “Cobalt-polypyridyl complex for treatment of cancer, a pharmaceutical composition and a kit comprising it” (Macau University of Science and Technology, priority 2016, dated 2018).

How the values were obtained:
[1] = test system: Taxol-sensitive HCT8 cancer cells; assay: MTT cytotoxicity, taxol-sensitive HCT8; format: cell-based; conditions: 72 h
Experimental: (§1) All prepared cobalt-polypyridyl complexes were dissolved in DMSO at a final concentration of 50 mmol/L and stored at −20° C. before use. Cytotoxicity was assessed by using the 3-(4,5-dimethylthiazol-2-yl)-2,5-diphenyltetrazolium bromide (MTT) (5.0 mg/ml) assay as previously described (Wong, V. K. et al., Cell Death Dis, 2013, 4, e720). Briefly, 4×10^3 cells per well were seeded in 96-well plates before drug treatments. After overnight culture, the cells were then exposed to different concentrations of selected compounds (0.039-100 μmol/L) for 72 h. Cells without drug treatment were used as control. Subsequently, MTT (10 μL) solution was added to each well and incubated at 37° C. for 4 h followed by the addition of 100 μL solubilization buffer (10% SDS in 0.01 mol/L HCl) and overnight incubation. A570 nm was then determined in each well on the next day. The percentage of cell viability was calculated using the following formula: Cell viability (%)=Atreated/Acontrol×100. Data were obtained from three independent experiments.

[2] = test system: HeLa cells (cervical cancer); assay: MTT cytotoxicity assay, HeLa; format: cell-based; conditions: 72 h
Experimental: as §1, with “experiments. Cells include HeLa cells (cervical cancer), MCF-7 (breast cancer), H1299, H1975, A549 and LLC-1 (lung cancer), HepG2 and Hep3B (liver cancer) and LO2 (normal human hepatocytes).” for “experiments.”

[3] = test system: cisplatin-sensitive A2780 ovarian cancer cells; assay: MTT cytotoxicity, cisplatin-sensitive A2780; format: cell-based; conditions: 72 h
Experimental: as §1
(§2) Cisplatin-sensitive or -resistant A2780, OV2008 and C13 cancer cells were provided by Prof. Benjamin Tsang (Department of Obstetrics and Gynecology and Department of Cellular and Molecular Medicine, University of Ottawa, Canada). HCT116 p53^+/+ and p53^−/− isogenic human colon cancer cells were provided by Professor Bert Vogelstein (Ludwig Center at Johns Hopkins, Howard Hughes Medical Institute, USA). All media were supplemented with 10% fetal bovine serum and the antibiotics penicillin (50 U/ml) and streptomycin (50 μg/ml; Invitrogen, Paisley, Scotland, UK). All cell cultures were incubated at 37° C. in a 5% humidified CO2 incubator.

[4] = test system: cisplatin-sensitive SGC-7901 gastric cancer cells; assay: MTT cytotoxicity, cisplatin-sensitive SGC-7901; format: cell-based; conditions: SGC-7901, MTT, 72 h
Experimental: as §1

[5] = test system: LLC-1 (lung cancer); assay: MTT cytotoxicity assay, LLC-1; format: cell-based; conditions: LLC-1, MTT, 72 h
Experimental: as §1, with “experiments. Cells include HeLa cells (cervical cancer), MCF-7 (breast cancer), H1299, H1975, A549 and LLC-1 (lung cancer), HepG2 and Hep3B (liver cancer) and LO2 (normal human hepatocytes).” for “experiments.”

[6] = test system: LO2 (normal human hepatocytes); assay: MTT cytotoxicity assay, LO2; format: cell-based; conditions: 72 h
Experimental: as §1, with “experiments. Cells include HeLa cells (cervical cancer), MCF-7 (breast cancer), H1299, H1975, A549 and LLC-1 (lung cancer), HepG2 and Hep3B (liver cancer) and LO2 (normal human hepatocytes).” for “experiments.”

[7] = test system: cisplatin-resistant A2780 ovarian cancer cells; assay: MTT cytotoxicity, cisplatin-resistant A2780; format: cell-based; conditions: for IC50: A2780, MTT, 72 h; for Resistant Factor: A2780, cisplatin-resistant over cisplatin-sensitive
Experimental: as §1, §2

[8] = test system: HCT116 p53^+/+ colon cancer cells; assay: MTT cytotoxicity, HCT116 p53+/+; format: cell-based, human; conditions: 72 h
Experimental: as §1, §2

[9] = test system: A549 (lung cancer); assay: MTT cytotoxicity assay, A549; format: cell-based; conditions: 72 h
Experimental: as §1, with “experiments. Cells include HeLa cells (cervical cancer), MCF-7 (breast cancer), H1299, H1975, A549 and LLC-1 (lung cancer), HepG2 and Hep3B (liver cancer) and LO2 (normal human hepatocytes).” for “experiments.”

[10] = test system: OV2008/C13 cervical cancer cells; assay: MTT cytotoxicity, OV2008/C13 (cisplatin-resistant); format: cell-based; conditions: for IC50: OV2008/C13, MTT, 72 h; for Resistant Factor: OV2008/C13 over OV2008
Experimental: as §1, §2

[11] = test system: HepG2 (liver cancer); assay: MTT cytotoxicity assay, HepG2; format: cell-based; conditions: 72 h
Experimental: as §1, with “experiments. Cells include HeLa cells (cervical cancer), MCF-7 (breast cancer), H1299, H1975, A549 and LLC-1 (lung cancer), HepG2 and Hep3B (liver cancer) and LO2 (normal human hepatocytes).” for “experiments.”

[12] = test system: Hep 3B (liver cancer); assay: MTT cytotoxicity assay, Hep3B; format: cell-based; conditions: 72 h
Experimental: as §1, with “experiments. Cells include HeLa cells (cervical cancer), MCF-7 (breast cancer), H1299, H1975, A549 and LLC-1 (lung cancer), HepG2 and Hep3B (liver cancer) and LO2 (normal human hepatocytes).” for “experiments.”

[13] = test system: H1299 (lung cancer); assay: MTT cytotoxicity assay, H1299; format: cell-based, human; conditions: 72 h
Experimental: as §1, with “experiments. Cells include HeLa cells (cervical cancer), MCF-7 (breast cancer), H1299, H1975, A549 and LLC-1 (lung cancer), HepG2 and Hep3B (liver cancer) and LO2 (normal human hepatocytes).” for “experiments.”

[14] = test system: Taxol-resistant A549 cancer cells; assay: MTT cytotoxicity, taxol-resistant A549; format: cell-based; conditions: for IC50: A549, MTT, 72 h; for Resistant Factor: A549, IC50 taxol-resistant over IC50 taxol-sensitive
Experimental: as §1
(§3) All cells were obtained from the American Type Culture Collection (Rockville, Md., USA) unless otherwise specified. Immortalized wild-type and Atg7-deficient mouse embryonic fibroblasts (MEFs) were provided by Professor Masaaki Komatsu (Juntendo University, School of Medicine, Japan). Taxol-resistant types of A549, MCF-7, HCT-8 cancer cells, cisplatin-resistant SGC7901 cancer cells were purchased from KeyGEN BioTECH, China.

[15] = test system: Taxol-resistant HCT8 cancer cells; assay: MTT cytotoxicity, taxol-resistant HCT8; format: cell-based; conditions: for IC50: HCT8, MTT, 72 h; for Resistant Factor: HCT8, IC50 taxol-resistant over IC50 taxol-sensitive
Experimental: as §1, §3

[16] = test system: MCF-7 (breast cancer); assay: MTT cytotoxicity assay, MCF-7; format: cell-based; conditions: MCF-7, MTT, 72 h
Experimental: as §1, with “experiments. Cells include HeLa cells (cervical cancer), MCF-7 (breast cancer), H1299, H1975, A549 and LLC-1 (lung cancer), HepG2 and Hep3B (liver cancer) and LO2 (normal human hepatocytes).” for “experiments.”

[17] = test system: cisplatin-resistant SGC-7901 gastric cancer cells; assay: MTT cytotoxicity, cisplatin-resistant SGC-7901; format: cell-based; conditions: for IC50: SGC-7901, MTT, 72 h; for Resistant Factor: SGC-7901, cisplatin-resistant over cisplatin-sensitive
Experimental: as §1, §3

[18] = test system: HCT116 p53^−/− colon cancer cells; assay: MTT cytotoxicity, HCT116 p53-/-; format: cell-based, human; conditions: for Resistant Factor: HCT116 p53^−/− over HCT116 p53^+/+; for IC50: MTT, 72 h
Experimental: as §1, §2

[19] = test system: H1975 (lung cancer); assay: MTT cytotoxicity assay, H1975; format: cell-based; conditions: 72 h
Experimental: as §1, with “experiments. Cells include HeLa cells (cervical cancer), MCF-7 (breast cancer), H1299, H1975, A549 and LLC-1 (lung cancer), HepG2 and Hep3B (liver cancer) and LO2 (normal human hepatocytes).” for “experiments.”

[20] = test system: OV2008 cervical cancer cells; assay: MTT cytotoxicity, OV2008 (cisplatin-sensitive); format: cell-based; conditions: 72 h
Experimental: as §1, §2

[21] = test system: Taxol-sensitive A549 cancer cells; assay: MTT cytotoxicity, taxol-sensitive A549; format: cell-based; conditions: 72 h
Experimental: as §1

[22] = test system: Taxol-resistant MCF-7 cancer cells; assay: MTT cytotoxicity, taxol-resistant MCF-7; format: cell-based; conditions: for IC50: MCF-7, MTT, 72 h; for Resistant Factor: MCF-7, IC50 taxol-resistant over IC50 taxol-sensitive
Experimental: as §1, §3

[23] = test system: Taxol-sensitive MCF-7 cancer cells; assay: MTT cytotoxicity, taxol-sensitive MCF-7; format: cell-based; conditions: MCF-7, MTT, 72 h
Experimental: as §1

Row | Compound | IC50 [1] [µM] | IC50 [2] [µM] | IC50 [3] [µM] | IC50 [4] [µM] | IC50 [5] [µM] | IC50 [6] [µM] | IC50 [7] [µM] | Resistant Factor [7] | IC50 [8] [µM] | IC50 [9] [µM] | IC50 [10] [µM] | Resistant Factor [10] | IC50 [11] [µM] | IC50 [12] [µM] | IC50 [13] [µM] | IC50 [14] [µM] | Resistant Factor [14] | IC50 [15] [µM] | Resistant Factor [15] | IC50 [16] [µM] | other results
1 | F[P-](F)(F)(F)(F)F.F[P-](F)(F)(F)(F)F.[Co+2].c1ccc(-c2ccccn2)nc1.c1ccc(-c2ccccn2)nc1.c1ccc(-c2ccccn2)nc1 [complex (V), [Co^II(N^N)3](PF6)2] | 11.4 | 24.2 | 28.8 | 29.9 | 17.2 | 33.6 | 31.6 | 1.10 | 34.3 | 26.3 | 14.9 | 0.79 | 13.3 | 6.92 | 9.4 | 7.85 | 0.26 | 7.78 | 0.68 | 15.8 | IC50 [17]: 29.9 µM; Resistant Factor [17]: 1.00; Resistant Factor [18]: 0.85; IC50 [18]: 29.1 µM; IC50 [19]: 17 µM; IC50 [20]: 18.9 µM; IC50 [21]: 29.9 µM; IC50 [22]: 16.8 µM; Resistant Factor [22]: 1.25; IC50 [23]: 13.4 µM
2 | F[P-](F)(F)(F)(F)F.F[P-](F)(F)(F)(F)F.F[P-](F)(F)(F)(F)F.[Co+3].c1ccc(-c2ccccn2)nc1.c1ccc(-c2ccccn2)nc1.c1ccc(-c2ccccn2)nc1 [complex (VI), [Co^III(N^N)3](PF6)3] | 18.5 | 35.9 | 55 | 41.1 | 29.2 | 43.7 | 54.1 | 0.98 | 45.1 | 37.2 | 37.4 | 0.88 | 22.7 | 13.8 | 14.9 | 11.1 | 0.21 | 10.2 | 0.55 | 10.1 | IC50 [17]: 41.7 µM; Resistant Factor [17]: 1.01; Resistant Factor [18]: 1.00; IC50 [18]: 45 µM; IC50 [19]: 21 µM; IC50 [20]: 42.5 µM; IC50 [21]: 51.7 µM; IC50 [22]: 5.01 µM; Resistant Factor [22]: 0.62; IC50 [23]: 8.02 µM
